# Patent US4460605A, “2-[2'-Hydroxy-3'-(1,1-dimethylpropylamino)-propoxy ]-β-phenylpropiophenone, its physiologically acceptable acid addition salts, and pharmaceutical compositions” (Helopharm W. Petrik & Co., priority 1981, dated 1984)
# Where a name gives a salt, the structure may show the parent alone. Read-outs that look alike come from different tables or passages of the source.
# Assays:
# [1] = system: circulation parameters; experiment: Circulation parameters in dogs (method of Hapke and Prigge); conditions: for Coronary flow volume / Left ventricular peak pressure / Peripheral blood flow volume (A. femoralis) / Diastolic blood pressure (A. femoralis) / Maximum rate of pressure rise (dp/dt) / Systolic blood pressure (A. femoralis) / Heart beat rate change: dog
# Description: For the test method see H. J. Hapke and E. Prigge, Arzneim.-Forsch.
# [2] = system: CHCl3-adrenalin-model arrhythmia; experiment: animal or person; type: in vivo, dog
# Method: The antiarrhythmic effect of the compound of formula I was tested in dogs according to the method of Hapke and Prigge, Arzneim.-Forsch. (Drug Res.), loc. cit. A model arrhythmia which was essentially characterized by ventricular extrasystoles at absolute arrhythmia was produced by infusion of chloroform and adrenalin (epinephrine). At the onset of these rhythm disorders the inventive compound was injected intravenously as aqueous solution of the hydrochloride.
# . […] (Drug Res.), loc. cit.
# [3] = system: model arrhythmias; experiment: Tests with animals having model arrhythmias (known compounds); type: in vivo; conditions: average (1-3 mg/kg) intravenous doses
# [4] = system: heart rate disorders; conditions: human medicine; cited from earlier work
# [5] = system: model arrhythmias; conditions: cited from earlier work; for dose at which antiarrhythmic effect appeared: dogs, cats and rabbits
# [6] = system: rhythm disorders produced by occlusion of a branch of the coronary vessels; experiment: Antiarrhythmic effect after oral administration, rhythm disorders by occlusion of a branch of the coronary vessels in dogs; type: in vivo, dog; conditions: 10 mg/kg intragastric
# Method: Again in dogs, the excellent antiarrhythmic effect could be observed after oral administration too. Rhythm disorders were produced by occlusion of a branch of the coronary vessels. The inventive compound was administered intragastrically in the form of the hydrochloride the next day.
# [7] = LD50 acute toxicity in dog; conditions: in vivo, iv; dog i.v.
smiles,measurement,setting,value
CCCNCC(O)COc1ccccc1C(=O)CCc1ccccc1 (stereo not drawn) [propafenone-HCl],Coronary flow volume,[1]; 1.0 mg/kg i.v.,+14%
same,Left ventricular peak pressure,[1]; 1.0 mg/kg i.v.,-5 mm Hg
same,Peripheral blood flow volume (A. femoralis),[1]; 1.0 mg/kg i.v.,+10%
same,Coronary flow volume,[1]; 3.0 mg/kg i.v.,+30%
same,Diastolic blood pressure (A. femoralis),[1]; 3.0 mg/kg i.v.,-40 mm Hg
same,Left ventricular peak pressure,[1]; 3.0 mg/kg i.v.,-25 mm Hg
same,Maximum rate of pressure rise (dp/dt),[1]; 3.0 mg/kg i.v.,-29%
same,Peripheral blood flow volume (A. femoralis),[1]; 3.0 mg/kg i.v.,+36%
same,Systolic blood pressure (A. femoralis),[1]; 3.0 mg/kg i.v.,-30 mm Hg
same,Coronary flow volume,[1]; 5.0 mg/kg i.v.,+43%
same,Left ventricular peak pressure,[1]; 5.0 mg/kg i.v.,-42 mm Hg
same,Maximum rate of pressure rise (dp/dt),[1]; 5.0 mg/kg i.v.,-47%
same,Coronary flow volume,[1]; 10.0 mg/kg i.v.,+67%
same,Diastolic blood pressure (A. femoralis),[1]; 10.0 mg/kg i.v.,-60 mm Hg
same,Left ventricular peak pressure,[1]; 10.0 mg/kg i.v.,-70 mm Hg
same,Maximum rate of pressure rise (dp/dt),[1]; 10.0 mg/kg i.v.,-62%
same,Systolic blood pressure (A. femoralis),[1]; 10.0 mg/kg i.v.,-65 mm Hg
"CCC(C)(C)NCC(O)COc1ccccc1C(=O)CCc1ccccc1 (stereo not drawn) [diprafenone, 2-[2'-hydroxy-3'-(1,1-dimethylpropylamino)-propoxy]-β-phenylpropiophenone]",minimal effective dose,"[2]; Canis lupus familiaris, intravenous, model arrhythmias, read-out: dose showing an antiarrhythmic effect",0.05 mg/kg
same,increase of therapeutic quotient as compared to propafenone,"[2]; dog, in vivo",10-20 times
CC(C)(C)NCC(O)COc1ccccc1C(=O)CCc1ccccc1 (stereo not drawn) [tert-butylamino],antiarrhythmic effect,[3],practically no antiarrhythmic effect
CCC(C)NCC(O)COc1ccccc1C(=O)CCc1ccccc1 (stereo not drawn) [1-methylpropylamino],antiarrhythmic effect,[3],practically no antiarrhythmic effect
CCCCNCC(O)COc1ccccc1C(=O)CCc1ccccc1 (stereo not drawn) [n-butylamino],antiarrhythmic effect,[3],practically no antiarrhythmic effect
CCCNCC(O)COc1ccccc1C(=O)CCc1ccccc1 (stereo not drawn) [propafenone],effect in therapy of heart rate disorders,[4],"antiarrhythmic with local anaesthetic, quinidine-like and also β-receptor blocking effect"
same,hemodynamic effect,[5]; average (1-3 mg/kg) and higher (5 mg/kg) intravenous doses,"hypotensive, negative inotropic effect and dilates the coronary arteries"
same,dose at which antiarrhythmic effect appeared,[5]; intravenous,1 mg/kg
same,dose at which antiarrhythmic effect appeared,[5]; oral,2 to 10 mg/kg
same,heart rate,[5]; doses producing an antiarrhythmic effect,not substantially affected
same,antiarrhythmic effect,[5]; only one of the compounds of German Pat. No. 2 001 431,shows an antiarrhythmic effect
"CCC(C)(C)NCC(O)COc1ccccc1C(=O)CCc1ccccc1 (stereo not drawn) [diprafenone-HCl, 2-[2'-hydroxy-3'-(1,1-dimethylpropylamino)-propoxy]-β-phenylpropiophenone-hydrochloride]",extrasystoles,[6]; 30 minutes after application,no extrasystoles could be observed
same,extrasystoles,[6]; for 10 minutes after application,observed unchanged
same,ECG,[6]; for the 24 hours observed,remained normal
same,time to full antiarrhythmic effect,"[2]; dogs, 0.05 mg/kg i.v.",≤ 45 s
same,antiarrhythmic effect (sinus rhythm in ECG became normal),"[2]; dogs, 0.05 mg/kg i.v., all dogs treated",fully effective
same,LD50,[7],10 mg/kg
same,effect on peripheral and coronary circulation,[1]; comparable doses,does not have an effect on the peripheral and coronary circulation
same,Diastolic blood pressure (A. femoralis),[1]; 0.5 mg/kg i.v.,-16 mm Hg
same,Heart beat rate change,[1]; 0.5 mg/kg i.v.,-8 min⁻¹
same,Systolic blood pressure (A. femoralis),[1]; 0.5 mg/kg i.v.,-13 mm Hg
same,Diastolic blood pressure (A. femoralis),[1]; 1.0 mg/kg i.v.,-24 mm Hg
same,Heart beat rate change,[1]; 1.0 mg/kg i.v.,-22 min⁻¹
same,Systolic blood pressure (A. femoralis),[1]; 1.0 mg/kg i.v.,-17 mm Hg
same,Coronary flow volume,[1]; 3.0 mg/kg i.v.,+56%
same,Diastolic blood pressure (A. femoralis),[1]; 3.0 mg/kg i.v.,-39 mm Hg
same,Heart beat rate change,[1]; 3.0 mg/kg i.v.,-24 min⁻¹
same,Left ventricular peak pressure,[1]; 3.0 mg/kg i.v.,-46 mm Hg
same,Maximum rate of pressure rise (dp/dt),[1]; 3.0 mg/kg i.v.,-30%
same,Systolic blood pressure (A. femoralis),[1]; 3.0 mg/kg i.v.,-45 mm Hg
same,heart beat rate,"[1]; doses of 0.5 mg/kg i.v., contrary to propafenone",reduction of the heart beat rate
